# According to patent US20040019026A1, “Compounds useful for treating hypertriglyceridemia” (priority 2000, published 2004):
# Several values for one entry are separate records, joined by “and”; a condition that tells them apart may be missing. Identical values can stand only once.
# Columns and labels:
# Type in all cases: in vivo
# [1] = system: male BKS.Cg-m+/+Leprdb mice; test: Buccal administration to diabetic mice: fasting plasma triglycerides (Example 3)
# Text: The following example, tested the effects of buccal administration of 16α-fluoro-5-andorsten-17-one (hereinafter “drug”).
# Eight-week-old male BKS.Cg-m^+/+Lepr^db mice were obtained from Jackson Laboratories. The mice were initially housed five per cage on Alphacel bedding with ad libitum access to Purina 5015 chow and acidified water. The mice wee housed in the Central Animal Facility (6th Floor, Pharmacy building) with twelve hours of alternating light and darkness.
# Five days later, the chow was removed from the mice at approximately 3:30 p.m. This was done so that a fasting plasma glucose level could be obtained on the next day. The next day, a pretreatment plasma glucose determination was made. The mice were lightly anesthetized with Isoflurane and were bled form the orbital sinus (˜400 μL of blood was taken). The blood was obtained between 10:00 a.m. and noon. Blood was kept on ice until analysis. After the blood for the glucose measurement was taken out, the remaining blood was centrifuged at 3000×g for 15 minutes. The plasma was removed and frozen for use in determining plasma triglyceride levels.
# Plasma triglyceride levels were determined with a Sigma kit (334-UV). The determination is based on the enzymatic hydrolysis of triglycerides to glycerol and free fatty acids by lipase. Glycerol was subsequently phosphorylated by ATP to produce glycerol-I-phosphate and ADP. ATP was regenerated by a pyruvate kinase-catalyzed reaction between ADP […] with simultaneous oxidation of equimolar amounts of NADH in the presence of lactate dehydrogenase. NADH absorbs at 340 nm, thus the decrease in absorbance, measured at this wavelength, is directly proportional to the triglyceride concentration in this sample.
# Triglyceride Reagent A (containing ATP, lactate dehydrogenase, lipase, NADH, phosphoenol pyruvate, pyruvate kinase) and Triglyceride Reagent B were reconstituted with 10 mL and 2 mL of distilled water respectively. The Sample Reagent was prepared by adding 0.25 mL of Triglyceride reagent B to 10 mL to Triglyceride Reagent A. Blank, standard (50, 100 and 200 mg/dL) and sample tubes were prepared. One mL of Sample Reagent was added to all tubes. To the Blank tube, 20 μL of distilled water was added. For each Sample tube, 20 μL of plasma was added to the tube. All tubes were incubated at room temperature for 10 minutes. The tubes were read against a Reference containing distilled water. Triglyceride concentration in the samples were calculated by subtracting the absorbance of the Sample form the absorbance of the Blank and using the following formula: […]
# One week after obtaining the mice, the mice were distributed into either groups of 6 mice (Control, buccal and 5 mg/kg drug buccal), or 7 mice (10 mg/kg drug buccal). The mice were weighed.
# The buccally administered groups were treated with a suspension of drug, 16α-5-androsten-17-one obtained from Eminent Services Corp. The suspension consisted of 100 mg/mL of micronized fluasterone (16α-fluoro-5-androsten-17-one) in 0.9% saline plus 2% Tween 80 and 0.4% carboxymethyl cellulose. The mice were lightly anesthetized with isoflurane and then injected i.m. with 0.05 mL of a solution of ketamine (50 mg/kg), xylazine (10 mg.kg) and atropine (0.1 mg/kg) injected near tail). Approximately 10 minutes post injection, while the animals were anesthetized, the mice were placed on their backs and were treated with one-half of the dose of drug necessary in each buccal area. The mice remained anesthetized and on their backs for approximately 30 minutes post-treatment. The 5 mg/kg drug group was treated with 2.04 μL of suspension (1.02 μL per buccal area) and the 10 mg/kg drug group was treated with 4.2 μL(2.1 μL per buccal area) while the Control Buccal group received 4.2 μL (2.1 μL per buccal area) for the duration of the experiment. The cages of the mice were placed on heating pads on a low temperature to prevent loss of animals due to hypothermia during anesthesia. […]
# [2] = system: male BKS.Cg-m+/+Leprdb mice; test: Seminal vesicle weights, androgenic potency (Example 9)
# Text: Eight week old male BKS.Cg-m^+/+Lepr^db mice were obtained from Jackson Laboratories. These mice have a point mutation in the leptin receptor gene and produce a truncated receptor with impaired signaling capacity. These animals are severely insulin resistant and manifest an uncontrolled rise in blood sugar, severe depletion of the insulin-producing beta-cells of the pancreatic islets, and death by 10 months of age. The male animals also have very low plasma testosterone levels and as a consequence undeveloped seminal vesicle glands. Administration of androgens to these mice produces an increase in seminal vesicle weights similar to that seen in castrated males. Thus these animals can be used to assess androgenic potency of various compounds.
# The mice were housed five per cage on Alphacel bedding with ad libitum access to Purina 5015 chow and acidified water. The mice were housed in the Central Animal Facility (6th floor, Pharmacy building) with twelve hours of alternating light and darkness.
# A week later, the mice were treated subcutaneously (s.c.) with 0.05 mL fluasterone (16α-fluoro-5-androsten-17-one) suspended in an Emulphor-saline vehicle to give either a dose of 5 mg/kg s.c. or 20 mg/kg s.c. or intraperitoneally (i.p.) with 0.05 mL of fluasterone suspended in an Emulphor-saline vehicle to give a dose of 5 mg/kg. The Control mice received the Emulphor-saline vehicle s.c.
# All the mice were anesthetized lightly with isoflurane before treatment with fluasterone to minimize the risk of stressing the mice while giving the s.c. dose. Their food was removed the afternoon before administration with drug and the chow was to the mice the next morning immediately after treatment. All the mice had their chow removed daily and restored just after fluasterone administration. During the week, the mice had access to chow for approximately 6½ hours, while on the weekends, the mice had approximately 4½ hours of access to chow. Mice were treated daily (weekdays and weekends).
# Mice were treated daily with fluasterone, for about one month. Then the mice were sacrificed with an overdose of CO2. The seminal vesicles of each mouse were excised, cleaned of adventitia and the coagulating glands, and any liquid was pressed out and then the glands were weighed on a Mettler AE50 balance.
# [3] = system: male BKS.Cg-m+/+Leprdb mice; test: Fasting plasma glucose levels in diabetic mice (Example 9)
# [4] = 5 mg/kg, i.p. daily about one month, individual mice
# [5] = 5 mg/kg, s.c. daily about one month, individual mice
# [6] = 20 mg/kg, s.c. daily about one month, individual mice
smiles,measurement,setting,value
"C[C@]12CCCCC1=CC[C@@H]1[C@@H]2CC[C@]2(C)C(=O)[C@H](F)C[C@@H]12 [fluasterone, 16α-fluoro-5-androsten-17-one]",Plasma triglycerides,"[1]; 5 mg/kg buccal group, pre-treatment, group mean",138.4 ± 44.6 mg/dL
same,Plasma triglycerides,"[1]; 5 mg/kg buccal group, pre-treatment, individual mice, listed as drug",116.8 mg/dL and 222.8 mg/dL and 120.6 mg/dL and 110.7 mg/dL and 153.8 mg/dL and 105.9 mg/dL
same,Plasma triglycerides,"[1]; 5 mg/kg buccal, after 6 days of treatment, group mean, p < 0.01 vs. control buccal",110.6 ± 28.0 mg/dL
same,Plasma triglycerides,"[1]; 5 mg/kg buccal, after 6 days of treatment, individual mice, listed as drug",77.2 mg/dL and 106.0 mg/dL and 87.3 mg/dL and 414.0 mg/dL and 146.6 mg/dL and 105.4 mg/dL
same,Plasma triglycerides,"[1]; 5 mg/kg buccal, after 13 days of treatment, group mean, p < 0.0005 vs. Control buccal",82.0 ± 12.3 mg/dL
same,Plasma triglycerides,"[1]; 5 mg/kg buccal, after 13 days of treatment, individual mice, listed as drug",97.8 mg/dL and 89.3 mg/dL and 65.3 mg/dL and 79.1 mg/dL and 78.3 mg/dL
same,Plasma triglycerides,"[1]; 10 mg/kg buccal group, pre-treatment, group mean",118.7 ± 38.1 mg/dL
same,Plasma triglycerides,"[1]; 10 mg/kg buccal group, pre-treatment, individual mice, listed as drug",97.1 mg/dl and 102.1 mg/dl (2×) and 89.4 mg/dl and 184.4 mg/dl and 93.7 mg/dl and 162.1 mg/dl
same,Plasma triglycerides,"[1]; 10 mg/kg buccal, after 6 days of treatment, group mean, p < 0.01 vs. Control buccal",96.5 ± 32.4 mg/dL
same,Plasma triglycerides,"[1]; 10 mg/kg buccal, after 6 days of treatment, individual mice, listed as drug",108.7 mg/dL and 83.5 mg/dL and 96.8 mg/dL and 61.2 mg/dL and 104.6 mg/dL and 64.3 mg/dL and 156.7 mg/dL
same,Plasma triglycerides,"[1]; 10 mg/kg buccal, after 13 days of treatment, group mean, P < 0.001 vs. Control buccal",104.0 ± 16.6 mg/dL
same,Plasma triglycerides,"[1]; 10 mg/kg buccal, after 13 days of treatment, individual mice, listed as drug",102.0 mg/dL and 83.5 mg/dL and 93.6 mg/dL and 133.5 mg/dL and 118.1 mg/dL and 97.8 mg/dL and 99.2 mg/dL
same,Seminal Vesicles,[2]; [4],85.6 mg and 81.8 mg and 71.9 mg and 81.0 mg
same,s.v./b.w.,[2]; [4],2.1084 and 1.6166 and 1.5630 and 2.0301
same,Seminal Vesicles,"[2]; 5 mg/kg, i.p., Average, p < 0.005",80.1 p < 0.005 mg
same,s.v./b.w.,"[2]; 5 mg/kg, i.p., Average, p < 0.01",1.8295
same,Seminal Vesicles,[2]; [5],40.7 mg and 43.4 mg and 44.5 mg and 42.2 mg and 41.9 mg
same,s.v./b.w.,[2]; [5],0.8568 and 1.1361 and 0.9570 and 0.9420 and 0.9566
same,Seminal Vesicles,"[2]; 5 mg/kg, s.c., Average",42.5 mg
same,s.v./b.w.,"[2]; 5 mg/kg, s.c., Average, n.s.",0.9697 n.s.
same,Seminal Vesicles,[2]; [6],39.6 mg and 35.8 mg and 35.4 mg and 34.6 mg
same,s.v./b.w.,[2]; [6],0.8684 and 1.0000 and 0.8872 and 0.8065
same,Seminal Vesicles,"[2]; 20 mg/kg, s.c., Average, n.s.",36.4 n.s. mg
same,s.v./b.w.,"[2]; 20 mg/kg, s.c., Average, n.s.",0.8905 n.s.
same,Androgenicity,"[2]; 200 mg/kg p.o. dose, mouse",lack of androgenicity
same,Effect on seminal vesicle weights,[2]; i.p. route,highly significant increase in seminal vesicle weights
same,Effect on seminal vesicle weights,[2]; s.c. route at much higher doses,no apparent effect on seminal vesicle weights
same,Fasting Plasma Glucose Levels,"[3]; 5 mg/kg i.p., treatment day 0",270 ± 81.9 mg/dL
same,Fasting Plasma Glucose Levels,"[3]; 5 mg/kg i.p., treatment day 7",434 ± 264 mg/dL
same,Fasting Plasma Glucose Levels,"[3]; 5 mg/kg i.p., treatment day 14",410 ± 32.1 mg/dL
same,Fasting Plasma Glucose Levels,"[3]; 5 mg/kg i.p., treatment day 17, greater than s.c. Control, p < 0.01",635 ± 77.3^3 mg/dL
same,Fasting Plasma Glucose Levels,"[3]; 5 mg/kg s.c., treatment day 0",245 ± 102 mg/dL
same,Fasting Plasma Glucose Levels,"[3]; 5 mg/kg s.c., treatment day 7",173 ± 58.3 mg/dL
same,Fasting Plasma Glucose Levels,"[3]; 5 mg/kg s.c., treatment day 14, less than s.c. Control, p < 0.001",134 ± 29.8^1 mg/dL
same,Fasting Plasma Glucose Levels,"[3]; 5 mg/kg s.c., treatment day 17, less than s.c. Control, p < 0.001",96.0 ± 18.5^1 mg/dL
same,Fasting Plasma Glucose Levels,"[3]; 200 mg/kg oral, treatment day 0",245 ± 72.1 mg/dL
same,Fasting Plasma Glucose Levels,"[3]; 200 mg/kg oral, treatment day 7",181 ± 69.3 mg/dL
same,Fasting Plasma Glucose Levels,"[3]; 200 mg/kg oral, treatment day 14, less than oral Control, p < 0.001",107 ± 12.2^2 mg/dL
same,Fasting Plasma Glucose Levels,"[3]; 200 mg/kg oral, treatment day 17, less than oral Control, p < 0.001",104 ± 24.8^2 mg/dL
